Experimental data as given in PubChem BioAssay (NCI).
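96-well plates; 48 h exposure; 5 concentrations. Endpoints by linear interpolation between flanking doses. Not reached: highest tested concentration assigned. GI50 is the concentration that inhibits growth by half. TGI is the concentration that stops growth completely.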

Tests used:
Assay in all cases: NCI anticancer screen, dose series, 48 h
HCT-116 colon = tested on: HCT-116 colon
HT29 colon = tested on: HT29 colon
K-562 leukemia = tested on: K-562 leukemia
LOX IMVI melanoma = tested on: LOX IMVI melanoma
SF-539 CNS = tested on: SF-539 CNS
SK-MEL-5 melanoma = tested on: SK-MEL-5 melanoma
SK-OV-3 ovarian = tested on: SK-OV-3 ovarian
SN12C renal = tested on: SN12C renal
UO-31 renal = tested on: UO-31 renal

SMILES	TGI (HCT-116 colon) [µM]	TGI (HT29 colon) [µM]	TGI (K-562 leukemia) [µM]	TGI (LOX IMVI melanoma) [µM]	TGI (SF-539 CNS) [µM]	TGI (SK-MEL-5 melanoma) [µM]	TGI (SK-OV-3 ovarian) [µM]	TGI (SN12C renal) [µM]	TGI (UO-31 renal) [µM]	GI50 (UO-31 renal) [µM]
O=C1CS(=O)(=O)C(c2cccc(Oc3ccccc3)c2)N1c1ccccc1 (centres undefined)	30.8	> 100	60.1	32.7	39.6	29.3	> 100	39.7	80.4	–
COc1ccc2c(c1)c1nn(CCN3CCCCC3)c3ccc4c(=O)n(CCN(C)C)c(=O)n2c4c13	0.0213	0.0963	0.6	0.178	0.975	0.283	2.91	0.0984	0.354	–
O=C(O)CNC(=O)c1ccc2cc(C(=O)N3CC(CCl)c4ccc([N+](=O)[O-])cc43)[nH]c2c1 (centres undefined)	> 100	> 100	–	> 100	> 100	> 100	> 100	> 100	> 100	–
COc1cc(CCN(C)C)cc(OC)c1OC	> 100	> 100	> 100	> 100	> 100	> 100	> 100	> 100	–	–
CC12CCC(C(=Nc3cc(C(F)(F)F)cc(C(F)(F)F)c3)C1=O)C2(C)C (centres undefined)	99	> 100	> 100	29.9	44.9	> 100	> 100	–	> 100	–
COc1ccc(N=C2C(=Nc3ccc(OC)cc3)N(c3ccc(N(C)C)cc3)C(=S)N2c2ccc(OC)cc2)cc1	> 100	> 100	> 100	> 100	> 100	> 100	> 100	> 100	> 100	–
COc1ccc2c(c1)CCN1CCCc3ccccc3C21 (centres undefined)	92.8	> 100	> 100	57.9	34.7	> 100	> 100	> 100	> 100	–
CCCc1nnc2sc(COc3cc(Cl)c(OCc4nn5c(CCC)nnc5s4)cc3Cl)nn12	> 100	> 100	> 100	> 100	> 100	32.1	82.5	> 100	–	–
CCCCCCCCCCCCCCCCCC(=O)Nc1ccn(C2CCC(COP(=O)(O)O)O2)c(=O)n1 (centres undefined)	> 100	> 100	> 100	> 100	> 100	> 100	> 100	> 100	> 100	–
CC(=O)OCCCCn1cc(Cn2ccc(=O)n(Cc3cn(CCCCOC(C)=O)nn3)c2=O)nn1	> 100	–	–	> 100	> 100	> 100	> 100	> 100	> 100	–
CCOC(=O)C(=CN1CCNC1=S)C(=O)OCC	> 100	> 100	> 100	> 100	> 100	> 100	> 100	> 100	> 100	> 100
O=[N+]([O-])c1cccc(Cl)c1Oc1ccc(S(=O)(=O)/N=C(\NO)Nc2ccc(Cl)cc2)cc1	25	30.8	33.3	32.7	28.1	24.7	31.8	25.7	23.7	–
Cc1c(O)c(OC2OC(CO)C(O)C(O)C2O)cc2c1C=C[C@@H]1[C@@]2(C)C(=O)C[C@]2(C)[C@@H]([C@@](C)(O)C(=O)CCC(C)(C)O)[C@H](O)C[C@@]12C (some centres undefined)	37.8	83.1	> 100	59.2	43.9	43.6	42.1	44.1	44.8	–
O=C(C(Cl)=C(N1CCCCC1)N1CCCCC1)C(Cl)Cl	> 100	> 100	> 100	> 100	> 100	> 100	> 100	> 100	> 100	–
COCC12CCC(OC)C34C5CC6(O)C(OC)CC(OC(C)=O)(C5C6OC(=O)c5ccccc5)C(C(OC)C13)C4N(C)C2 (centres undefined)	> 100	> 100	–	> 100	> 100	> 100	> 100	> 100	> 100	–
Nc1ccc2ccc(-c3ccc[nH]3)nc2n1	> 100	–	–	> 100	> 100	> 100	> 100	> 100	> 100	–
CCOC(=O)C(=O)CC(=O)C1=C(c2ccccc2OC)CC(c2cccs2)=CC1=O	> 100	> 100	> 100	> 100	> 100	> 100	> 100	> 100	> 100	–
CC12ON(P(=O)(c3ccccc3)c3ccccc3)C(C)(c3ccccc31)c1ccccc12	> 100	> 100	> 100	> 100	> 100	> 100	> 100	> 100	> 100	–
CC(=O)N(C(C)=O)n1c(Cc2ccc(C)cc2)nn(C(C)=O)c1=O	> 100	> 100	> 100	> 100	> 100	> 100	> 100	> 100	> 100	–
N=c1oc2ccccc2cc1-c1nc2ccccc2c(=O)[nH]1	> 100	> 100	> 100	> 100	> 100	> 100	> 100	> 100	> 100	–
CN[C@@H](C)[C@@H](O)c1ccccc1	> 100	> 100	> 100	> 100	> 100	> 100	–	> 100	> 100	–
O=C(N/N=C(/COc1ccccc1Cl)N=Cc1ccncc1)c1ccncc1	> 100	> 100	> 100	> 100	> 100	–	> 100	> 100	–	–
CCCCCN(CCCCC)CC(C)(C)C(O)c1ccc(OC)c2ccccc12 (centres undefined)	61.9	16.5	25	4.99	17.6	12.8	–	25.2	8.93	–
CNC(=S)NNc1ncnc2c1ncn2-c1ccc(C)cc1	> 100	> 100	> 100	> 100	> 100	> 100	> 100	> 100	> 100	–
